Experimental data from the supplement of paper PMC10331698.
± gives the standard deviation of the averaged measurements.

Key:
Experiment in all cases: level (log10 ratio to DMSO vehicle control); higher = higher biomarker level / cell amount than vehicle control
[1] = compound: C=C(C)C(=O)OCCC(F)(F)C(F)(F)C(F)(F)C(F)(F)C(F)(F)C(F)(F)C(F)(F)C(F)(F)F [8:2 Fluorotelomer methacrylate] (in DMSO)
Procedure: (§1)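 BioMAP Diversity Plus panel of 12 human primary cell co-culture systems (3C, 4H, LPS, SAg, BT, BF4T, BE3C, CASM3C, HDF3CGF, KF3CT, MyoF, Mphg). Compounds were added 1 h before stimulation and left for 24 h (MyoF 48 h; BT 72 h for soluble read-outs or 6 d for IgG). Biomarkers were read by ELISA, cytotoxicity by SRB, PBMC viability and proliferation by Alamar Blue. Each well value was divided by the mean of 8 DMSO control wells on the same plate and log10 transformed; duplicate blinded samples were tested at 4 concentrations.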

[2] = compound: CN(C(=O)C(F)(F)C(F)(F)C(F)(F)F)[Si](C)(C)C [N-Methyl-N-trimethylsilylheptafluorobutyramide] (in DMSO)
Procedure: as §1

Perfluorononanoic acid = compound: O=C(O)C(F)(F)C(F)(F)C(F)(F)C(F)(F)C(F)(F)C(F)(F)C(F)(F)C(F)(F)F [Perfluorononanoic acid] (in DMSO)
Procedure: as §1

[3] = compound: O=C(O)C(F)(F)C(F)(F)C(F)(F)OC(F)(F)F [Perfluoro(4-methoxybutanoic) acid] (in DMSO)
Procedure: as §1

[4] = compound: O=C(O)C(F)(F)OC(F)(F)C(F)(F)OC(F)(F)C(F)(F)OC(F)(F)C(F)(F)C(F)(F)C(F)(F)F [Perfluoro-3,6,9-trioxatridecanoic acid] (in DMSO); details: 6700 nM
Procedure: as §1

[5] = compound: O=C(O)C(F)(OC(F)(F)C(F)(OC(F)(F)C(F)(OC(F)(F)C(F)(F)C(F)(F)F)C(F)(F)F)C(F)(F)F)C(F)(F)F [Perfluoro-(2,5,8-trimethyl-3,6,9-trioxadodecanoic)acid] (in DMSO)
Procedure: as §1

[6] = compound: O=S(=O)(O)C(F)(F)C(F)(F)OC(F)(F)C(F)(F)F [Perfluoro(2-ethoxyethane)sulfonic acid] (in DMSO)
Procedure: as §1

[7] = compound: OCCC(F)(F)C(F)(F)C(F)(F)C(F)(F)F [4:2 Fluorotelomer alcohol] (in DMSO)
Procedure: as §1

Test System: CASM3C:HLA-DR
- level (log10) ([1]; 6700 nM): -0.006 ± 0.027
- level (log10) ([1]; 20000 nM): -0.0195 ± 0.046
- level (log10) ([2]; 6700 nM): -0.0175 ± 0.0021
- level (log10) ([2]; 20000 nM): -0.0105 ± 0.012
- level (log10) ([2]; 60000 nM): 0.013 ± 0.011
- level (log10) (Perfluorononanoic acid; 6700 nM): -0.0105 ± 0.066
- level (log10) (Perfluorononanoic acid; 20000 nM): -0.02 ± 0.0028
- level (log10) ([3]; 6700 nM): -0.016 ± 0.014
- level (log10) ([3]; 20000 nM): -0.006 ± 0.023
- level (log10) ([3]; 60000 nM): -0.0095 ± 0.00071
- level (log10) [4]: -0.0005 ± 0.0078
- level (log10) ([5]; 1100 nM): 0.0045 ± 0.019
- level (log10) ([5]; 3300 nM): -0.004 ± 0.0028
- level (log10) ([5]; 10000 nM): 0.0165 ± 0.012
- level (log10) ([6]; 6700 nM): 0.011 ± 0.0099
- level (log10) ([6]; 20000 nM): 0 ± 0.02
- level (log10) ([6]; 60000 nM): -0.005 ± 0.016
- level (log10) ([7]; 6700 nM): -0.0195 ± 0.049
- level (log10) ([7]; 20000 nM): -0.022 ± 0.028
- level (log10) ([7]; 60000 nM): 0.002 ± 0.037

Test System: CASM3C:PAI-I
- level (log10) ([1]; 6700 nM): 0.001 ± 0.0014
- level (log10) ([1]; 20000 nM): 0.0065 ± 0.011
- level (log10) ([2]; 6700 nM): 0.0015 ± 0.021
- level (log10) ([2]; 20000 nM): -0.003 ± 0.0071
- level (log10) ([2]; 60000 nM): 0.0005 ± 0.0078
- level (log10) (Perfluorononanoic acid; 6700 nM): 0.0015 ± 0.011
- level (log10) (Perfluorononanoic acid; 20000 nM): -0.008 ± 0.017
- level (log10) ([3]; 6700 nM): -0.0015 ± 0.0021
- level (log10) ([3]; 20000 nM): 0.0005 ± 0.0035
- level (log10) ([3]; 60000 nM): 0.0095 ± 0.0064
- level (log10) [4]: 0.0015 ± 0.005
- level (log10) ([5]; 1100 nM): -0.002 ± 0.0014
- level (log10) ([5]; 3300 nM): -0.0005 ± 0.0035
- level (log10) ([5]; 10000 nM): 0.009 ± 0.0099
- level (log10) ([6]; 6700 nM): 0.004 ± 0.0071
- level (log10) ([6]; 20000 nM): 0.0015 ± 0.012
- level (log10) ([6]; 60000 nM): 0.015 ± 0.011
- level (log10) ([7]; 6700 nM): -0.0085 ± 0.011
- level (log10) ([7]; 20000 nM): 0.001 ± 0.017
- level (log10) ([7]; 60000 nM): -0.0015 ± 0.021

Test System: BE3C:PAI-I
- level (log10) ([1]; 6700 nM): 0.001 ± 0.041
- level (log10) ([1]; 20000 nM): -0.013 ± 0.076
- level (log10) ([2]; 6700 nM): -0.0045 ± 0.047
- level (log10) ([2]; 20000 nM): -0.013 ± 0.017
- level (log10) ([2]; 60000 nM): -0.012 ± 0.02
- level (log10) (Perfluorononanoic acid; 6700 nM): -0.013 ± 0.042
- level (log10) (Perfluorononanoic acid; 20000 nM): -0.101 ± 0.019
- level (log10) ([3]; 6700 nM): -0.005 ± 0.0085
- level (log10) ([3]; 20000 nM): -0.001 ± 0.025
- level (log10) ([3]; 60000 nM): -0.0005 ± 0.0021
- level (log10) [4]: -0.526 ± 0.018
- level (log10) ([5]; 1100 nM): -0.0265 ± 0.036
- level (log10) ([5]; 3300 nM): -0.0315 ± 0.022
- level (log10) ([5]; 10000 nM): 0.006 ± 0.064
- level (log10) ([6]; 6700 nM): -0.011 ± 0.023
- level (log10) ([6]; 20000 nM): 0.0015 ± 0.021
- level (log10) ([6]; 60000 nM): 0.032 ± 0.014
- level (log10) ([7]; 6700 nM): -0.0355 ± 0.023
- level (log10) ([7]; 20000 nM): -0.03 ± 0.045
- level (log10) ([7]; 60000 nM): 0.0365 ± 0.016

Test System: CASM3C:Serum Amyloid A
- level (log10) ([1]; 6700 nM): -0.045 ± 0.0057
- level (log10) ([1]; 20000 nM): -0.02 ± 0.078
- level (log10) ([2]; 6700 nM): -0.018 ± 0.0099
- level (log10) ([2]; 20000 nM): -0.0275 ± 0.025
- level (log10) ([2]; 60000 nM): 0.013 ± 0.082
- level (log10) (Perfluorononanoic acid; 6700 nM): -0.014 ± 0.018
- level (log10) (Perfluorononanoic acid; 20000 nM): -0.012 ± 0.048
- level (log10) ([3]; 6700 nM): -0.0435 ± 0.015
- level (log10) ([3]; 20000 nM): -0.0465 ± 0.0064
- level (log10) ([3]; 60000 nM): -0.0075 ± 0.081
- level (log10) [4]: -0.0305 ± 0.013
- level (log10) ([5]; 1100 nM): -0.005 ± 0.014
- level (log10) ([5]; 3300 nM): 0.0105 ± 0.036
- level (log10) ([5]; 10000 nM): 0.04 ± 0.03
- level (log10) ([6]; 6700 nM): 0.029 ± 0.044
- level (log10) ([6]; 20000 nM): 0.133 ± 0.18
- level (log10) ([6]; 60000 nM): 0.344 ± 0.22
- level (log10) ([7]; 6700 nM): -0.081 ± 0.081
- level (log10) ([7]; 20000 nM): -0.0345 ± 0.023
- level (log10) ([7]; 60000 nM): -0.013 ± 0.1

Test System: KF3CT:PAI-I
- level (log10) ([1]; 6700 nM): -0.022 ± 0.037
- level (log10) ([1]; 20000 nM): -0.015 ± 0.013
- level (log10) ([2]; 6700 nM): -0.02 ± 0.025
- level (log10) ([2]; 20000 nM): -0.004 ± 0.014
- level (log10) ([2]; 60000 nM): -0.0005 ± 0.0078
- level (log10) (Perfluorononanoic acid; 6700 nM): 0.065 ± 0.011
- level (log10) (Perfluorononanoic acid; 20000 nM): -0.0095 ± 0.032
- level (log10) ([3]; 6700 nM): -0.0015 ± 0.005
- level (log10) ([3]; 20000 nM): -0.0115 ± 0.011
- level (log10) ([3]; 60000 nM): -0.004 ± 0.018
- level (log10) [4]: -0.126
- level (log10) ([5]; 1100 nM): -0.0025 ± 0.0035
- level (log10) ([5]; 3300 nM): -0.018 ± 0.0071
- level (log10) ([5]; 10000 nM): 0.006 ± 0.0099
- level (log10) ([6]; 6700 nM): -0.01
- level (log10) ([6]; 20000 nM): -0.0145 ± 0.0078
- level (log10) ([6]; 60000 nM): -0.009 ± 0.013
- level (log10) ([7]; 6700 nM): -0.0355 ± 0.012
- level (log10) ([7]; 20000 nM): -0.073 ± 0.027
- level (log10) ([7]; 60000 nM): 0.041 ± 0.035

Test System: MyoF:bFGF
- level (log10) ([1]; 6700 nM): -0.0105 ± 0.00071
- level (log10) ([1]; 20000 nM): 0.011 ± 0.014
- level (log10) ([2]; 6700 nM): 0.0025 ± 0.0078
- level (log10) ([2]; 20000 nM): 0.012 ± 0.0042
- level (log10) ([2]; 60000 nM): 0.0125 ± 0.012
- level (log10) (Perfluorononanoic acid; 6700 nM): -0.0025 ± 0.025
- level (log10) (Perfluorononanoic acid; 20000 nM): 0.015 ± 0.014
- level (log10) ([3]; 6700 nM): 0.001 ± 0.0042
- level (log10) ([3]; 20000 nM): 0.0015 ± 0.012
- level (log10) ([3]; 60000 nM): 0.015 ± 0.0042
- level (log10) [4]: -0.059 ± 0.03
- level (log10) ([5]; 1100 nM): -0.014 ± 0.0028
- level (log10) ([5]; 3300 nM): -0.0045 ± 0.0035
- level (log10) ([5]; 10000 nM): 0.0075 ± 0.005
- level (log10) ([6]; 6700 nM): 0.003 ± 0.0014
- level (log10) ([6]; 20000 nM): 0.0085 ± 0.0064
- level (log10) ([6]; 60000 nM): 0.0165 ± 0.0092
- level (log10) ([7]; 6700 nM): -0.0015 ± 0.013
- level (log10) ([7]; 20000 nM): -0.0025 ± 0.015
- level (log10) ([7]; 60000 nM): 0.004 ± 0.044

Test System: HDF3CGF:Collagen I
- level (log10) ([1]; 6700 nM): -0.0255 ± 0.029
- level (log10) ([1]; 20000 nM): -0.001 ± 0.083
- level (log10) ([2]; 6700 nM): -0.058 ± 0.021
- level (log10) ([2]; 20000 nM): -0.0195 ± 0.053
- level (log10) ([2]; 60000 nM): -0.0335 ± 0.039
- level (log10) (Perfluorononanoic acid; 6700 nM): 0.0345 ± 0.005
- level (log10) (Perfluorononanoic acid; 20000 nM): -0.0715 ± 0.036
- level (log10) ([3]; 6700 nM): -0.0125 ± 0.015
- level (log10) ([3]; 20000 nM): 0.0115 ± 0.049
- level (log10) ([3]; 60000 nM): 0.033 ± 0.061
- level (log10) [4]: -0.0565 ± 0.061
- level (log10) ([5]; 1100 nM): 0.027 ± 0.0028
- level (log10) ([5]; 3300 nM): -0.014 ± 0.051
- level (log10) ([5]; 10000 nM): 0.0475 ± 0.013
- level (log10) ([6]; 6700 nM): -0.046 ± 0.024
- level (log10) ([6]; 20000 nM): -0.037 ± 0.031
- level (log10) ([6]; 60000 nM): 0.017 ± 0.055
- level (log10) ([7]; 6700 nM): -0.0205 ± 0.0078
- level (log10) ([7]; 20000 nM): -0.0025 ± 0.0092
- level (log10) ([7]; 60000 nM): 0.0475 ± 0.05
